Data from BindingDB's records for doi:10.1016/j.bmcl.2014.08.028 (Rhône-Poulenc Rorer, 2014).

Assay: Antagonist activity at CRTH2 receptor in human whole blood assessed as inhibition of PGD2-induced eosinophil shape change after 10 mins by fluorescence assay

IC50 [nM] | SMILES
26 | Cc1ccn2c(CC(=O)O)cc(-c3ccc(C(F)(F)F)cc3Cc3c(C)noc3C3CC3)c2n1
60 | Cc1ccc2c(CC(=O)O)cn(-c3ccc(C(F)(F)F)cc3Cc3c(C4CC4)noc3C3CC3)c2n1
16 | Cc1noc(C2CC2)c1Cc1cc(F)ccc1-c1cn(CC(=O)O)c2ccc(C(F)(F)F)cc12
5 | Cc1ccc2c(CC(=O)O)cn(-c3ccc(C(F)(F)F)cc3Cc3c(C)noc3C3CC3)c2n1
54 | Cc1noc(C2CC2)c1Cc1cc(C(F)(F)F)ccc1-c1cn(CC(=O)O)c2ccc(C(F)(F)F)nc12

Further lines, the compound ahead of its results:

SMILES | IC50 [nM]
Cc1nnc(C2CC2)n1Cc1cc(C(F)(F)F)ccc1-c1cn(CC(=O)O)c2ccc(F)cc12 | 2
Cc1ccc(-n2cc(CC(=O)O)c3ccc(C)nc32)c(Cn2c(C)nnc2C)c1 | 1
Cc1ccc2c(CC(=O)O)cn(-c3ccc(F)cc3Cc3c(C)noc3C3CC3)c2n1 | 1
Cc1ccc2c(CC(=O)O)cn(-c3ccc(Cl)cc3Cn3c(C)nnc3CCc3ccccc3)c2n1 | 5
Cc1ccc2c(CC(=O)O)cn(-c3ccc(Cl)cc3Cn3c(C)nnc3Cc3ccccc3)c2n1 | 2
Cc1nnc(C2CC2)n1Cc1cc(C(F)(F)F)ccc1-n1cc(CC(=O)O)c2ccc(F)cc21 | 7
Cc1ccc2c(CC(=O)O)cn(-c3ccc(Cl)cc3Cn3c(C)nnc3C3CC3)c2n1 | 4
Cc1ccc2c(CC(=O)O)cn(-c3ccc(Cl)cc3Cc3c(C4CC4)noc3C3CC3)c2n1 | 10
Cc1ccc2c(CC(=O)O)cn(-c3ccc(F)cc3Cc3c(C)cnn3C)c2n1 | 6
